Our source for the MIC values is article PMC5666153, “Klebsiella pneumoniae Carbapenemase-2 (KPC-2), Substitutions at Ambler Position Asp179, and Resistance to Ceftazidime-Avibactam: Unique Antibiotic-Resistant Phenotypes Emerge from β-Lactamase Protein Engineering” (mBio, 2017).

Holding throughout (assay): microbe, parasite or virus in culture
The test system of one assay is T1, E. coli DH10B.
T1 construct: DH10B
Details: species or system bacterial strain of the line; Mueller-Hinton agar-dilution MIC, CLSI; concentration at which bacterial growth was no longer observed. The conditions noted are these: Escherichia coli. On the procedure: (§1) Mueller-Hinton (MH) agar-dilution MIC measurements were performed according to Clinical and Laboratory Standards Institute (CLSI) guidelines as previously described ([12], [30]). The MICs are reported as the concentrations at which bacterial growth was no longer observed. Avibactam was tested at a constant 4 µg/ml in combination with its respective antibiotic partners. All MIC measurements were performed at least three times. The impact of site-saturation mutagenesis at Ambler position 179 of KPC-2 on antibiotic resistance was next assessed using whole-cell viability assays. Twenty-four different β-lactam and β-lactam–β-lactamase inhibitor combinations were tested for susceptibility against KPC-2 and the 19 variants expressed in E. coli DH10B cells (Tables 1 and 2). The Klebsiella pneumoniae KPC-2-containing positive-control strain maintained resistance (as defined by Clinical and Laboratory Standards Institute [CLSI] criteria) against all the commercially available β-lactams tested (Table 1).

In the next assay the test system is T2, E. coli DH10B pBC SK.
T2 construct: DH10B carries empty vector pBC SK
Details: species or system bacterial strain of the line; Mueller-Hinton agar-dilution MIC, CLSI; concentration at which bacterial growth was no longer observed. The conditions noted are these: Escherichia coli, empty vector pBC SK. The protocol:
as §1

Assay [1] deals with T3, blaKPC-2 179 Asp (WT) in E. coli DH10B.
T3 construct: DH10B expressing blaKPC-2 (wild type)
Also noted: species or system E. coli DH10B / K. pneumoniae; Mueller-Hinton agar dilution MIC, CLSI, no visible growth. The following applies: Escherichia coli. On the procedure: Mueller-Hinton (MH) agar-dilution MIC measurements were performed according to Clinical and Laboratory Standards Institute (CLSI) guidelines as previously described ([12], [30]). The MICs are reported as the concentrations at which bacterial growth was no longer observed. Avibactam was tested at a constant 4 µg/ml in combination with its respective antibiotic partners. All MIC measurements were performed at least three times.

The next assay has as its system T4, K. pneumoniae KPC-2.
T4 construct: KPC-2-producing control strain, also producing TEM-1 and SHV-29
Details: species or system bacterial strain of the line; Mueller-Hinton agar-dilution MIC, CLSI; concentration at which bacterial growth was no longer observed. The conditions noted are these: Klebsiella pneumoniae.

Setting [2] is: BAL, read-out: MIC(s) (µg/ml) / BAL.

Molecules are shown by their SMILES. ≈ marks a conversion by molar mass, not a printed value. Where two headings read alike, the source gives them in different places. Where only a bound is given, the exact number is not on record here.

For the compound `C[C@H]1[C@H](NC(=O)/C(=N\OC(C)(C)C(=O)O)c2csc(N)n2)C(=O)N1S(=O)(=O)O` [AZT, aztreonam], the MIC was determined as 0.06 µg/mL with E. coli DH10B (DH10B, read-out: MIC(s) (µg/ml) / AZT) and 0.06 µg/mL with E. coli DH10B pBC SK (DH10BPBCSK, read-out: MIC(s) (µg/ml) / AZT).
For `CC1(C)[C@H](NC(=O)/C(=N\OCc2cc(=O)c(O)cn2O)c2csc(N)n2)C(=O)N1OS(=O)(=O)O` [BAL30072], the MIC in the assay on E. coli DH10B (setting [2]) is at most 0.06 µg/mL; in the assay on E. coli DH10B pBC SK (setting [2]), at most 0.06 µg/mL; in assay [1] (setting [2]), at most 0.06 µg/mL; with K. pneumoniae KPC-2 (setting [2]) it was 8 µg/mL (≈ 15.4 µM).
As for `CC(C)(O/N=C(\C(=O)N[C@@H]1C(=O)N2C(C(=O)[O-])=C(C[n+]3ccccc3)CS[C@H]12)c1csc(N)n1)C(=O)O` [CAZ, ceftazidime], the MIC in the assay on E. coli DH10B (DH10B, read-out: MIC(s) (µg/ml) / CAZ) came to 0.25 µg/mL; in the assay on E. coli DH10B pBC SK (DH10BPBCSK, read-out: MIC(s) (µg/ml) / CAZ) it was 0.25 µg/mL; in assay [1] (read-out: MIC(s) (µg/ml) / CAZ), 1 µg/mL; in the assay on K. pneumoniae KPC-2 (KPC2, read-out: MIC(s) (µg/ml) / CAZ), 64 µg/mL (≈ 117 µM).
As for `CO/N=C(\C(=O)N[C@@H]1C(=O)N2C(C(=O)O)=C(CSc3nc(=O)c(=O)[nH]n3C)CS[C@H]12)c1csc(N)n1` [CRO, ceftriaxone], the MIC in the assay with E. coli DH10B (DH10B, read-out: MIC(s) (µg/ml) / CRO) was at most 0.06 µg/mL; in the assay with E. coli DH10B pBC SK (DH10BPBCSK, read-out: MIC(s) (µg/ml) / CRO), at most 0.06 µg/mL; in assay [1] (read-out: MIC(s) (µg/ml) / CRO), 0.5 µg/mL.
As to `C[C@@H](O)[C@H]1C(=O)N2C(C(=O)O)=C(SCCN=CN)C[C@H]12` [IMI, imipenem], the MIC was found to be 0.5 µg/mL in the assay with E. coli DH10B (DH10B, read-out: MIC(s) (µg/ml) / IMI); 0.5 µg/mL with E. coli DH10B pBC SK (DH10BPBCSK, read-out: MIC(s) (µg/ml) / IMI); 1 µg/mL in assay [1] (read-out: MIC(s) (µg/ml) / IMI); 16 µg/mL (≈ 53.4 µM) in the assay on K. pneumoniae KPC-2 (KPC2, read-out: MIC(s) (µg/ml) / IMI).
Turning to `CCO/N=C(\C(=O)N[C@@H]1C(=O)N2C(C(=O)[O-])=C(Sc3nc(-c4cc[n+](C)cc4)cs3)CS[C@H]12)c1nsc(N)n1` [TAR, ceftaroline], the MIC was 0.06 µg/mL in the assay with E. coli DH10B (DH10B, read-out: MIC(s) (µg/ml) / TAR); below 0.06 µg/mL in the assay with E. coli DH10B pBC SK (DH10BPBCSK, read-out: MIC(s) (µg/ml) / TAR); 1 µg/mL in assay [1] (read-out: MIC(s) (µg/ml) / TAR); 512 µg/mL (≈ 847 µM) with K. pneumoniae KPC-2 (KPC2, read-out: MIC(s) (µg/ml) / TAR).
Consider `CC1(C)S[C@@H]2[C@H](NC(=O)[C@H](N)c3ccccc3)C(=O)N2[C@H]1C(=O)O` [ampicillin], for which the MIC is 8 µg/mL in the assay with E. coli DH10B (DH10B, read-out: MIC(s) (µg/ml) / AMP); 4 µg/mL in the assay on E. coli DH10B pBC SK (DH10BPBCSK, read-out: MIC(s) (µg/ml) / AMP); 64 µg/mL in assay [1] (read-out: MIC(s) (µg/ml) / AMP); above 8190 µg/mL with K. pneumoniae KPC-2 (KPC2, read-out: MIC(s) (µg/ml) / AMP).
Regarding `CO/N=C(\C(=O)N[C@@H]1C(=O)N2C(C(=O)[O-])=C(C[N+]3(C)CCCC3)CS[C@H]12)c1csc(N)n1` [cefepime], the MIC in the assay on E. coli DH10B (DH10B, read-out: MIC(s) (µg/ml) / FEP) is at most 0.125 µg/mL; in the assay with E. coli DH10B pBC SK (DH10BPBCSK, read-out: MIC(s) (µg/ml) / FEP), at most 0.125 µg/mL; in assay [1] (read-out: MIC(s) (µg/ml) / FEP), 0.125 µg/mL; with K. pneumoniae KPC-2 (KPC2, read-out: MIC(s) (µg/ml) / FEP), 64 µg/mL (≈ 133 µM).
As to `CO/N=C(\C(=O)N[C@@H]1C(=O)N2C(C(=O)O)=C(COC(C)=O)CS[C@H]12)c1csc(N)n1` [cefotaxime], the MIC with E. coli DH10B (DH10B, read-out: MIC(s) (µg/ml) / TAX) was at most 0.06 µg/mL; in the assay on E. coli DH10B pBC SK (DH10BPBCSK, read-out: MIC(s) (µg/ml) / TAX), at most 0.06 µg/mL; in assay [1] (read-out: MIC(s) (µg/ml) / TAX), 0.25 µg/mL; in the assay with K. pneumoniae KPC-2 (KPC2, read-out: MIC(s) (µg/ml) / TAX), 64 µg/mL (≈ 141 µM).
`CC(=O)OCC1=C(C(=O)O)N2C(=O)[C@@H](NC(=O)Cc3cccs3)[C@H]2SC1` [cephalothin]: the MIC in the assay with E. coli DH10B (DH10B, read-out: MIC(s) (µg/ml) / THIN) is 4 µg/mL; in the assay with E. coli DH10B pBC SK (DH10BPBCSK, read-out: MIC(s) (µg/ml) / THIN) it was 4 µg/mL; in assay [1] (read-out: MIC(s) (µg/ml) / THIN), 64 µg/mL; with K. pneumoniae KPC-2 (KPC2, read-out: MIC(s) (µg/ml) / THIN), 2050 µg/mL (≈ 5170 µM).
`C[C@@H](O)[C@H]1C(=O)N2C(C(=O)O)=C(S[C@@H]3CN[C@H](CNS(N)(=O)=O)C3)[C@H](C)[C@H]12` [doripenem]: the MIC in the assay with E. coli DH10B (DH10B, read-out: MIC(s) (µg/ml) / DOR) is at most 0.06 µg/mL; with E. coli DH10B pBC SK (DH10BPBCSK, read-out: MIC(s) (µg/ml) / DOR) it was at most 0.06 µg/mL; in assay [1] (read-out: MIC(s) (µg/ml) / DOR) it was 0.125 µg/mL; with K. pneumoniae KPC-2 (KPC2, read-out: MIC(s) (µg/ml) / DOR), 8 µg/mL (≈ 19 µM).
With `C[C@@H](O)[C@H]1C(=O)N2C(C(=O)O)=C(S[C@@H]3CN[C@H](C(=O)Nc4cccc(C(=O)O)c4)C3)[C@H](C)[C@H]12` [ertapenem], the MIC in the assay with E. coli DH10B (DH10B, read-out: MIC(s) (µg/ml) / ERT) is at most 0.03 µg/mL; in the assay on E. coli DH10B pBC SK (DH10BPBCSK, read-out: MIC(s) (µg/ml) / ERT) it was at most 0.03 µg/mL; in assay [1] (read-out: MIC(s) (µg/ml) / ERT), at most 0.06 µg/mL; in the assay with K. pneumoniae KPC-2 (KPC2, read-out: MIC(s) (µg/ml) / ERT), 32 µg/mL (≈ 67.3 µM).
On to `C[C@@H](O)[C@H]1C(=O)N2C(C(=O)O)=C(S[C@@H]3CN[C@H](C(=O)N(C)C)C3)[C@H](C)[C@H]12` [meropenem], for which the MIC with E. coli DH10B (DH10B, read-out: MIC(s) (µg/ml) / MEM) is at most 0.06 µg/mL; in the assay on E. coli DH10B pBC SK (DH10BPBCSK, read-out: MIC(s) (µg/ml) / MEM), at most 0.06 µg/mL; in assay [1] (read-out: MIC(s) (µg/ml) / MEM) it was 0.06 µg/mL; in the assay on K. pneumoniae KPC-2 (KPC2, read-out: MIC(s) (µg/ml) / MEM), 16 µg/mL (≈ 41.7 µM).
Turning to `CCN1CCN(C(=O)N[C@@H](C(=O)N[C@@H]2C(=O)N3[C@@H]2SC(C)(C)[C@@H]3C(=O)O)c2ccccc2)C(=O)C1=O` [piperacillin], the MIC was 2 µg/mL in the assay on E. coli DH10B (DH10B, read-out: MIC(s) (µg/ml) / PIP); 2 µg/mL in the assay with E. coli DH10B pBC SK (DH10BPBCSK, read-out: MIC(s) (µg/ml) / PIP); 8 µg/mL in assay [1] (read-out: MIC(s) (µg/ml) / PIP); 2050 µg/mL (≈ 3960 µM) in the assay on K. pneumoniae KPC-2 (KPC2, read-out: MIC(s) (µg/ml) / PIP).
